The text below walks through data of the supplement of paper PMC10307832.

What all share (assay): relative viability (nuclei count vs DMSO), 5 days (fraction); higher = more cells survive
Compound in the assay “Selisistat + Decitabine”: C1CC(C2=C(C1)C3=C(N2)C=CC(=C3)Cl)C(=O)N [Selisistat] + Nc1ncn([C@H]2C[C@H](O)[C@@H](CO)O2)c(=O)n1 [Decitabine] (partner 2 µM)
The method in brief: (§1)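 Values are medians from duplicate plates. Each reflects relative viability, defined as the nuclei count of treated wells over that of vehicle wells. Lung cancer cell lines in 1536-well plates were pin-tool dosed one day after seeding with one drug alone or with a fixed anchor-drug dose plus five library-drug doses (not always all listed) in √10 steps, then fixed, stained and imaged at 4× after 5 days.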

Compound in the assay “Selisistat + Phenformin”: C1CC(C2=C(C1)C3=C(N2)C=CC(=C3)Cl)C(=O)N [Selisistat] + N=C(N)NC(=N)NCCc1ccccc1 [Phenformin] (partner 250 µM)
The method in brief: as §1

Compound in the assay “Selisistat + Luminespib”: C1CC(C2=C(C1)C3=C(N2)C=CC(=C3)Cl)C(=O)N [Selisistat] + CCNC(=O)c1noc(-c2cc(C(C)C)c(O)cc2O)c1-c1ccc(CN2CCOCC2)cc1 [Luminespib] (partner 0.01 µM)
In a few lines:
as §1

Compound in the assay “Serdemetan + Linsitinib”: c1ccc2c(CCNc3ccc(Nc4ccncc4)cc3)c[nH]c2c1 [Serdemetan] + C[C@]1(O)C[C@@H](c2nc(-c3ccc4ccc(-c5ccccc5)nc4c3)c3c(N)nccn32)C1 [Linsitinib] (partner 1 µM)
In a few lines:
as §1

In the case of ChaGo-K-1, the relative viability was found to be 0.486 in the assay with Selisistat + Decitabine (first compound 0.4 µM); 0.511 with Selisistat + Decitabine (first compound 1.265 µM); 0.482 with Selisistat + Decitabine (first compound 4 µM); 0.491 in the assay with Selisistat + Decitabine (first compound 12.65 µM); 0.502 with Selisistat + Decitabine (first compound 40 µM); 0.488 in the assay with Selisistat + Phenformin (first compound 0.4 µM). For the same cell line, the relative viability was found to be 0.458 with Selisistat + Phenformin (first compound 1.265 µM); 0.439 in the assay with Selisistat + Phenformin (first compound 4 µM); 0.422 with Selisistat + Phenformin (first compound 12.65 µM); 0.485 with Selisistat + Phenformin (first compound 40 µM); 0.586 with Selisistat + Luminespib (first compound 0.4 µM); 0.581 in the assay with Selisistat + Luminespib (first compound 1.265 µM). For the same cell line, the relative viability with Selisistat + Luminespib (first compound 4 µM) was determined as 0.648; in the assay with Selisistat + Luminespib (first compound 12.65 µM), 0.526; with Selisistat + Luminespib (first compound 40 µM), 0.61.
Regarding NCI-H2228, the relative viability was 0.806 with Serdemetan + Linsitinib (first compound 0.04 µM); 0.68 with Serdemetan + Linsitinib (first compound 0.1265 µM); 0.519 with Serdemetan + Linsitinib (first compound 0.4 µM); 0.59 with Serdemetan + Linsitinib (first compound 1.265 µM); 0.397 in the assay with Serdemetan + Linsitinib (first compound 4 µM); 0.301 with Selisistat + Phenformin (first compound 0.4 µM). Besides, the relative viability with Selisistat + Phenformin (first compound 1.265 µM) worked out at 0.271; in the assay with Selisistat + Phenformin (first compound 4 µM), 0.205; with Selisistat + Phenformin (first compound 12.65 µM) it was 0.295; in the assay with Selisistat + Phenformin (first compound 40 µM), 0.307; in the assay with Selisistat + Luminespib (first compound 0.4 µM), 0.153; with Selisistat + Luminespib (first compound 1.265 µM), 0.101. Also, the relative viability came to 0.152 in the assay with Selisistat + Luminespib (first compound 4 µM), 0.145 with Selisistat + Luminespib (first compound 12.65 µM) and 0.13 in the assay with Selisistat + Luminespib (first compound 40 µM).
Regarding NCI-H1648, the relative viability turned out to be 0.477 in the assay with Selisistat + Decitabine (first compound 0.4 µM), 0.45 in the assay with Selisistat + Decitabine (first compound 1.265 µM), 0.406 in the assay with Selisistat + Decitabine (first compound 12.65 µM) and 0.551 with Selisistat + Decitabine (first compound 40 µM).
Take NCI-H1563: the relative viability with Serdemetan + Linsitinib (first compound 0.04 µM) was determined as 1.13; with Serdemetan + Linsitinib (first compound 0.1265 µM), 1.03; in the assay with Serdemetan + Linsitinib (first compound 0.4 µM), 0.94; in the assay with Serdemetan + Linsitinib (first compound 1.265 µM) it was 1.06; in the assay with Serdemetan + Linsitinib (first compound 4 µM) it was 0.759; in the assay with Selisistat + Phenformin (first compound 0.4 µM), 0.662. Moreover, the relative viability in the assay with Selisistat + Phenformin (first compound 1.265 µM) was found to be 0.658; in the assay with Selisistat + Phenformin (first compound 4 µM), 0.63; in the assay with Selisistat + Phenformin (first compound 12.65 µM), 0.638; in the assay with Selisistat + Phenformin (first compound 40 µM), 0.585; with Selisistat + Luminespib (first compound 0.4 µM) it was 0.473; with Selisistat + Luminespib (first compound 1.265 µM) it was 0.523. For the same cell line, the values for the relative viability with Selisistat + Luminespib (first compound 4 µM), with Selisistat + Luminespib (first compound 12.65 µM) and with Selisistat + Luminespib (first compound 40 µM) were 0.54, 0.528 and 0.541, respectively.
Turning to A549, the relative viability with Serdemetan + Linsitinib (first compound 0.04 µM) came out at 0.595; in the assay with Serdemetan + Linsitinib (first compound 0.1265 µM), 0.578; in the assay with Serdemetan + Linsitinib (first compound 0.4 µM), 0.631; with Serdemetan + Linsitinib (first compound 1.265 µM), 0.42; with Serdemetan + Linsitinib (first compound 4 µM) it was 0.179; in the assay with Selisistat + Decitabine (first compound 0.4 µM) it was 0.257. The relative viability was found to be 0.209 with Selisistat + Decitabine (first compound 1.265 µM); 0.232 in the assay with Selisistat + Decitabine (first compound 4 µM); 0.393 with Selisistat + Decitabine (first compound 40 µM); 0.192 with Selisistat + Phenformin (first compound 0.4 µM); 0.17 with Selisistat + Phenformin (first compound 1.265 µM); 0.123 with Selisistat + Phenformin (first compound 12.65 µM). Also, in the assay with Selisistat + Phenformin (first compound 40 µM), the relative viability turned out to be 0.145.
Regarding NCI-H522, the relative viability was 0.768 in the assay with Selisistat + Decitabine (first compound 0.4 µM); 0.662 in the assay with Selisistat + Decitabine (first compound 1.265 µM); 0.664 in the assay with Selisistat + Decitabine (first compound 4 µM); 0.617 with Selisistat + Decitabine (first compound 12.65 µM); 0.647 with Selisistat + Decitabine (first compound 40 µM); 0.695 with Selisistat + Phenformin (first compound 0.4 µM). The relative viability is 0.61 with Selisistat + Phenformin (first compound 1.265 µM); 0.469 with Selisistat + Phenformin (first compound 4 µM); 0.61 with Selisistat + Phenformin (first compound 12.65 µM); 0.687 in the assay with Selisistat + Phenformin (first compound 40 µM); 1.07 in the assay with Selisistat + Luminespib (first compound 0.4 µM); 1.1 in the assay with Selisistat + Luminespib (first compound 1.265 µM). For the same cell line, the relative viability with Selisistat + Luminespib (first compound 4 µM) amounted to 0.789; with Selisistat + Luminespib (first compound 12.65 µM), 1.17; with Selisistat + Luminespib (first compound 40 µM), 1.08.
For NCI-H2170, the relative viability with Selisistat + Decitabine (first compound 0.4 µM) came to 0.481; with Selisistat + Decitabine (first compound 1.265 µM), 0.474; with Selisistat + Decitabine (first compound 4 µM) it was 0.458; in the assay with Selisistat + Decitabine (first compound 12.65 µM) it was 0.53; with Selisistat + Decitabine (first compound 40 µM), 0.47; with Selisistat + Phenformin (first compound 0.4 µM), 0.413. Also, the relative viability in the assay with Selisistat + Phenformin (first compound 1.265 µM) stood at 0.417; with Selisistat + Phenformin (first compound 4 µM) it was 0.4; in the assay with Selisistat + Phenformin (first compound 12.65 µM), 0.432; in the assay with Selisistat + Phenformin (first compound 40 µM), 0.458; with Selisistat + Luminespib (first compound 0.4 µM) it was 0.653; in the assay with Selisistat + Luminespib (first compound 1.265 µM), 0.726. Also, the relative viability in the assay with Selisistat + Luminespib (first compound 4 µM) came out at 0.76; with Selisistat + Luminespib (first compound 12.65 µM), 0.843; in the assay with Selisistat + Luminespib (first compound 40 µM), 0.696.
With NCI-H1623, the relative viability was determined as 0.557 with Selisistat + Phenformin (first compound 0.4 µM); 0.556 with Selisistat + Phenformin (first compound 1.265 µM); 0.413 with Selisistat + Phenformin (first compound 4 µM); 0.579 with Selisistat + Phenformin (first compound 12.65 µM); 0.533 in the assay with Selisistat + Phenformin (first compound 40 µM); 0.701 with Selisistat + Luminespib (first compound 0.4 µM). Further, the relative viability with Selisistat + Luminespib (first compound 1.265 µM) came out at 0.504; with Selisistat + Luminespib (first compound 4 µM), 0.315; in the assay with Selisistat + Luminespib (first compound 12.65 µM), 0.644; in the assay with Selisistat + Luminespib (first compound 40 µM), 0.503.
For SW 900, the relative viability with Selisistat + Decitabine (first compound 0.4 µM) is 0.446; with Selisistat + Decitabine (first compound 1.265 µM), 0.401; in the assay with Selisistat + Decitabine (first compound 4 µM) it was 0.42; with Selisistat + Decitabine (first compound 12.65 µM) it was 0.517; in the assay with Selisistat + Decitabine (first compound 40 µM), 0.5; with Selisistat + Phenformin (first compound 0.4 µM), 0.632. The relative viability with Selisistat + Phenformin (first compound 1.265 µM) was 0.621; in the assay with Selisistat + Phenformin (first compound 4 µM), 0.468; with Selisistat + Phenformin (first compound 12.65 µM), 0.484; with Selisistat + Phenformin (first compound 40 µM), 0.641; with Selisistat + Luminespib (first compound 0.4 µM), 0.175; with Selisistat + Luminespib (first compound 1.265 µM), 0.175. Besides, the relative viability with Selisistat + Luminespib (first compound 4 µM) was found to be 0.179; with Selisistat + Luminespib (first compound 12.65 µM), 0.16; with Selisistat + Luminespib (first compound 40 µM), 0.177.
Regarding IA-LM, the relative viability in the assay with Serdemetan + Linsitinib (first compound 0.04 µM) came to 0.549; in the assay with Serdemetan + Linsitinib (first compound 0.1265 µM), 0.679; with Serdemetan + Linsitinib (first compound 0.4 µM), 0.537; with Serdemetan + Linsitinib (first compound 1.265 µM), 0.394; in the assay with Serdemetan + Linsitinib (first compound 4 µM) it was 0.388.
As to CAL-12T, the relative viability amounted to 0.77 with Serdemetan + Linsitinib (first compound 0.04 µM); 0.793 with Serdemetan + Linsitinib (first compound 0.1265 µM); 0.698 with Serdemetan + Linsitinib (first compound 0.4 µM); 0.864 in the assay with Serdemetan + Linsitinib (first compound 1.265 µM); 0.651 in the assay with Serdemetan + Linsitinib (first compound 4 µM); 0.586 in the assay with Selisistat + Phenformin (first compound 0.4 µM). Also, the relative viability in the assay with Selisistat + Phenformin (first compound 1.265 µM) is 0.565; with Selisistat + Phenformin (first compound 4 µM), 0.406; in the assay with Selisistat + Phenformin (first compound 12.65 µM), 0.516; with Selisistat + Phenformin (first compound 40 µM) it was 0.537; with Selisistat + Luminespib (first compound 0.4 µM) it was 0.546; with Selisistat + Luminespib (first compound 1.265 µM), 0.326. The relative viability with Selisistat + Luminespib (first compound 4 µM) came to 0.275; with Selisistat + Luminespib (first compound 12.65 µM), 0.784; with Selisistat + Luminespib (first compound 40 µM), 0.401.
Regarding EBC-1, the relative viability with Serdemetan + Linsitinib (first compound 0.04 µM) stood at 0.807; in the assay with Serdemetan + Linsitinib (first compound 0.1265 µM), 0.904; in the assay with Serdemetan + Linsitinib (first compound 0.4 µM), 0.952; in the assay with Serdemetan + Linsitinib (first compound 1.265 µM) it was 0.794; with Serdemetan + Linsitinib (first compound 4 µM) it was 0.634.
